Source: the NIST ThermoML archive (doi:10.1016/j.tca.2018.04.018)
Numbers after ± are expanded uncertainties.

Columns and labels:
[1] = molar heat capacity at constant pressure; xn = mol fraction of the nth substance listed; conditions: Flow calorimetry
[2] = molar heat capacity at constant pressure; conditions: 3000 kPa, Flow calorimetry

CCCCC [pentane] + CC(C)=O
[1]
Conditions	molar heat capacity at constant pressure [J/K/mol]
423.14 K, 3900 kPa, Liquid, x1 = 0.25	170.75 ± 3.9
423.14 K, 7920 kPa, Liquid, x1 = 0.5	179.32 ± 4.2
423.15 K, 2000 kPa, Liquid, x1 = 0.25	174.5 ± 4.1
423.15 K, 2900 kPa, Liquid, x1 = 0.5	194.43 ± 4.6
423.15 K, 4000 kPa, Liquid, x1 = 0.5	190.78 ± 4.4
423.15 K, 6000 kPa, Liquid, x1 = 0.25	171.36 ± 4
423.15 K, 6050 kPa, Liquid, x1 = 0.5	184.14 ± 4.3
423.15 K, 7960 kPa, Liquid, x1 = 0.25	163.97 ± 3.8
423.16 K, 1080 kPa, Gas, x1 = 0.5	145.86 ± 3.4
423.16 K, 2300 kPa, Liquid, x1 = 0.25	175.12 ± 4.1
423.17 K, 1080 kPa, Gas, x1 = 0.25	135.14 ± 3.1
483.14 K, 2960 kPa, Gas, x1 = 0.5	180.5 ± 5
483.14 K, 4000 kPa, Gas, x1 = 0.5	283.18 ± 6.9
483.15 K, 4480 kPa, Fluid (supercritical or subcritical phases), x1 = 0.5	750.83 ± 54
483.15 K, 7050 kPa, Fluid (supercritical or subcritical phases), x1 = 0.5	233.69 ± 8.7
483.15 K, 8160 kPa, Fluid (supercritical or subcritical phases), x1 = 0.5	218.13 ± 9
483.16 K, 5000 kPa, Fluid (supercritical or subcritical phases), x1 = 0.5	446.03 ± 32
483.16 K, 6100 kPa, Fluid (supercritical or subcritical phases), x1 = 0.5	260.13 ± 6.9
493.15 K, 3860 kPa, Gas, x1 = 0.25	221.56 ± 5.2
493.15 K, 4530 kPa, Fluid (supercritical or subcritical phases), x1 = 0.25	611.96 ± 120
493.15 K, 4742 kPa, Fluid (supercritical or subcritical phases), x1 = 0.25	1236.9 ± 140
493.15 K, 7920 kPa, Fluid (supercritical or subcritical phases), x1 = 0.25	214.05 ± 5.6
493.16 K, 3140 kPa, Gas, x1 = 0.25	173.64 ± 4.1
493.16 K, 6000 kPa, Fluid (supercritical or subcritical phases), x1 = 0.25	263.45 ± 9.7
503.14 K, 3200 kPa, Gas, x1 = 0.25	167.97 ± 3.9
503.14 K, 4120 kPa, Gas, x1 = 0.25	214.42 ± 5.1
503.15 K, 6180 kPa, Fluid (supercritical or subcritical phases), x1 = 0.25	330.59 ± 10
503.15 K, 7820 kPa, Fluid (supercritical or subcritical phases), x1 = 0.25	229.45 ± 5.9
503.16 K, 5400 kPa, Fluid (supercritical or subcritical phases), x1 = 0.25	600.07 ± 43
508.15 K, 2980 kPa, Gas, x1 = 0.5	175.81 ± 4.1
508.15 K, 4060 kPa, Gas, x1 = 0.5	200.68 ± 7.4
508.15 K, 6050 kPa, Fluid (supercritical or subcritical phases), x1 = 0.5	360.73 ± 12
508.15 K, 6930 kPa, Fluid (supercritical or subcritical phases), x1 = 0.5	310.98 ± 9.1
508.15 K, 8010 kPa, Fluid (supercritical or subcritical phases), x1 = 0.5	261.37 ± 7.9
508.16 K, 5030 kPa, Fluid (supercritical or subcritical phases), x1 = 0.5	258.63 ± 9.6

O [water]
[2]
Conditions	molar heat capacity at constant pressure [J/K/mol]
330.2 K, Liquid	75.29 ± 1.7
340.1 K, Liquid	75.41 ± 1.7
358.4 K, Liquid	75.61 ± 1.8
368.2 K, Liquid	75.61 ± 1.8
378.6 K, Liquid	75.99 ± 1.8
388.4 K, Liquid	76.49 ± 1.8
398.5 K, Liquid	76.51 ± 1.8
408.6 K, Liquid	77.48 ± 1.8
418.8 K, Liquid	76.93 ± 1.8
428.6 K, Liquid	77.72 ± 1.8
438.5 K, Liquid	78.11 ± 1.8
448.2 K, Liquid	78.91 ± 1.8
458.5 K, Liquid	79.41 ± 1.9
468.2 K, Liquid	80.92 ± 1.9
478.2 K, Liquid	81.81 ± 1.9
488.7 K, Liquid	83.32 ± 1.9
498.1 K, Liquid	83.92 ± 1.9
508.4 K, Gas	63.31 ± 1.5
